Source: patent publication US10954305B2 (Immunomedics, Inc., priority 2016, dated 2021)

What was measured:
NCI-N87-S120 = assay: in vitro cytotoxicity, MTS (Table 14); format: cell-based, human; conditions: for effect on SN-38 toxicity in S-120 cells: both S-120 cells, in vitro; for reversal of SN-38 resistance vs Ko143 and YHO-13351: limited studies
Protocol: (§1) Each cell line was maintained according to the recommendations of ATCC and routinely tested for mycoplasma using MYCOALERT™ mycoplasma detection kits (Lonza). The two SN-38-resistant cell lines, MDA-MB-231-5120 and NCI-N87-S120, were established by continuous exposure of the parental cells to stepwise increased concentrations of SN-38 from 6 pM to 120 nM over a period of approximately 2 years. In addition, a revertant cell line (NCI-N87-S120-REV) was obtained after culturing NCI-N87-S120 in SN-38-free medium for 4 months. The S-120 clones were maintained in medium containing 120 nM of SN-38, but cultured in drug-free medium for 7 to 14 days prior to any experiment. All cells were grown at 37° C. as monolayer cultures in a humidified atmosphere of 5% CO2.
(§2) In Vitro cytotoxicity. […] Briefly, cells were placed into wells of 96-well plates. […] From these working solutions, serial 5-fold dilutions were made in sterile media to yield final concentrations between 500 and 0.0064 nM in test wells. […] Cytotoxicity was measured as a percent of growth relative to untreated cells. Dose-response curves were generated from the mean of triplicate determinations, and IC50 values were calculated using GraphPad Prism Software V 6.05 (Advanced Graphics Software).
(§3) The effect of ABCG2 inhibitors on the IC50 values of SN-38 for the parental and resistant cell lines was determined from the respective dose-response curves obtained for SN-38 in the presence of a non-toxic concentration of ABCG2 inhibitors.

ABCG2 = ABCG2 (Homo sapiens, UniProt Q9UNQ0); conditions: S-120 cells, FTC 10 μM
NCI-N87 = assay: in vitro cytotoxicity, MTS (Table 14); format: cell-based; conditions: Homo sapiens, YHO-13351 2 μM, Ko143 1 μM where added
Protocol: as §1
In Vitro cytotoxicity. […] Briefly, cells were placed into wells of 96-well plates. […] Cytotoxicity was measured as a percent of growth relative to untreated cells. Dose-response curves were generated from the mean of triplicate determinations, and IC50 values were calculated using GraphPad Prism Software V 6.05 (Advanced Graphics Software).
as §3

MDA-MB-231-S120 = assay: in vitro cytotoxicity, MTS (Table 14); format: cell-based, human
Protocol: as §1, §2, §3

MDA-MB-231 = assay: in vitro cytotoxicity, MTS (Table 14); format: cell-based, human; conditions: Homo sapiens, YHO-13351 2 μM where added
Protocol: as §1, §2, §3

[1] = system: SK-MES-1 human squamous cell lung tumors; assay: SK-MES-1 xenograft therapy; format: in vivo, nude mice; conditions: irinotecan at MTD
MDA-MB-468 TNBC tumors = assay: MDA-MB-468 TNBC xenograft therapy; format: in vivo, nude mice; conditions: one animal each, tumors progressed after irinotecan
[2] = monotherapy weekly or once every 3 weeks; cited from earlier work
in vivo = conditions: nude, mouse, 773 ug
COLO 205 tumors = assay: COLO 205 xenograft therapy; conditions: 24 mg SN-38/kg, q2dx5
NCI-N87-S-120 tumors = assay: SN-38-resistant xenograft therapy; conditions: IMMU-132 0.5 mg twice weekly ×4 weeks; irinotecan 40 mg/kg q2dx5
Capan-1 tumors = assay: CL2 vs CL2A linker, Capan-1 xenograft; format: in vivo, mice; conditions: 0.2 mg/kg SN-38 twice weekly × 4 weeks
Protocol: FIG. 4C. […] Capan-1 mice (N=10) were treated with 0.2 mg/kg ADC and tumors measured weekly.

BxPC-3 = assay: dsDNA breaks, γH2AX flow cytometry; format: cell-based, human; conditions: 20 μg/ml for 30 min
Protocol: For drug activity testing, BxPC-3 cells were seeded in 6-well plates at 5×10^5 cells/well and held at 37° C. overnight. […] The following morning, cells were trypsinized briefly, spun down, stained with Fixable Viability Stain 450 (BD Biosciences, San Jose, Calif.), washed with 1% BSA-PBS, and then fixed in 4% formalin for 15 min, washed again and permeabilized in 0.15% Triton-X100 in PBS for another 15 min. After washing twice with 1% BSA-PBS, cells were incubated with mouse anti-γH2AX-AF488 (EMD Millipore Corporation, Temecula, Calif.) for 45 min at 4° C. The signal intensity of γH2AX was measured by flow cytometry using a BD FACSCanto (BD Biosciences, San Jose, Calif.).

Calu-3 tumors = assay: Calu-3 xenograft therapy; format: in vivo, nude mice; conditions: 0.4 mg/kg SN-38
[3] = biological target: T1, Trop-2 on multiple cell lines (Homo sapiens, UniProt P09758); assay: in vitro cell binding
T1 construct: endogenous in cells; host or cells: human solid tumour cell lines
T1 sequence (P09758 27-323): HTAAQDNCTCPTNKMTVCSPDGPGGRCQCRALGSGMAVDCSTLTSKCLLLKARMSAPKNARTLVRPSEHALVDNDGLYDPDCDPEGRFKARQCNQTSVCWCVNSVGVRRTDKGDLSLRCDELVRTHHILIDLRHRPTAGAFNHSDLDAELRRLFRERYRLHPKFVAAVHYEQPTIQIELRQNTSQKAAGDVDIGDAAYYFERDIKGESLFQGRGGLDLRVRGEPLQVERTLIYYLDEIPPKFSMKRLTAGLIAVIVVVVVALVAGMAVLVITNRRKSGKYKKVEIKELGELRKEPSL
Protocol: LumiGLO Chemiluminescent Substrate System (KPL, Gaithersberg, Md.) was used to detect antibody binding to cells. Briefly, cells were plated into a 96 black-well, flat-clear-bottom plate overnight. Antibodies were serially diluted 1:2 and added in triplicate, yielding a concentration range from 0.03 to 66.7 nM. After incubating for 1 h at 4° C., the media was removed and the cells washed with fresh cold media followed by the addition of a 1:20,000 dilution of goat-antihuman horseradish peroxidase-conjugated secondary antibody (Jackson Immunoresearch, West Grove, Pa.) for 1 h at 4° C. The plates were again washed before the addition of the LumiGLO reagent. Plates were read for luminescence using an Envision plate reader (Perkin Elmer, Boston Mass.). Data were analyzed by non-linear regression to determine the equilibrium dissociation constant (KD). Statistical comparisons of KD-values were made with Prism GraphPad Software (v4.03) (Advanced Graphics Software, Inc.; Encinitas, Calif.) using an F-Test on the best-fit curves for the data. Significance was set at P<0.05.

Capan-1 xenografts = assay: combined radioimmunotherapy and ADC, Capan-1 xenograft; format: in vivo, nude mice
Excerpt: The present study examined combinations of ^90Y-hPAM4 IgG with RS7-SN-38 in nude mice bearing 0.35 cm^3 subcutaneous xenografts of the human pancreatic cancer cell line, Capan-1. […] These studies provide the first evidence that combined radioimmunotherapy and ADC enhances efficacy at safe doses.

ABCG2, sequence (Q9UNQ0 whole entry): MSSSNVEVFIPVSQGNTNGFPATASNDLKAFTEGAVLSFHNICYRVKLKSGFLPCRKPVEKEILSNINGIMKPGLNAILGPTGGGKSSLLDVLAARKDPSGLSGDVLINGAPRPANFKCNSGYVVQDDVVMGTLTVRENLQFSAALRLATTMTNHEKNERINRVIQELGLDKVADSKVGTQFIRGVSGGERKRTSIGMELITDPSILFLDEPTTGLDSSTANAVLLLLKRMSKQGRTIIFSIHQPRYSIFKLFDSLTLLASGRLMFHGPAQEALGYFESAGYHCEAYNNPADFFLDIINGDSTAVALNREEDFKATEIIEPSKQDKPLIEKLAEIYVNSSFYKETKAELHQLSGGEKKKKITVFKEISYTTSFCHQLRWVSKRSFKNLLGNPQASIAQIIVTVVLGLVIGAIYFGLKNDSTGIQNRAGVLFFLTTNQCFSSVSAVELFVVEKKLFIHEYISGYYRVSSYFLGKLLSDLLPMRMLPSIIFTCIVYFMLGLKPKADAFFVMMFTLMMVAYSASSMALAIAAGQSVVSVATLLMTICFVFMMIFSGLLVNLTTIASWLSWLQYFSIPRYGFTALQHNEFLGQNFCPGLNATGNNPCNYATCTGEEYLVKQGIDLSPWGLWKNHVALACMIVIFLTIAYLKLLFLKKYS

Molecule: COc1ccc2c3c([nH]c2c1)[C@H](C=C(C)C)N1C(=O)[C@@H]2CCCN2C(=O)[C@@H]1C3 [FTC]
- effect on SN-38 toxicity in S-120 cells (NCI-N87-S120): restored toxicity of SN-38
- reversal of SN-38 resistance vs Ko143 and YHO-13351 (NCI-N87-S120): comparable or less potency
- reduction of intracellular PhA on omission of FTC (ABCG2): greater than 95%

Molecule: COc1cc2c(cc1OC)CN(CCc1ccc(NC(=O)c3cccc4c(=O)c5cccc(OC)c5[nH]c34)cc1)CC2 [GF120918]
- effect on SN-38 toxicity in S-120 cells (NCI-N87-S120): restored toxicity of SN-38
- reversal of SN-38 resistance vs Ko143 and YHO-13351 (NCI-N87-S120): comparable or less potency

Molecule: CC(=O)O[C@H]1C(=O)[C@@]2(C)[C@H]([C@H](OC(=O)c3ccccc3)[C@]3(O)C[C@H](OC(=O)[C@H](O)[C@@H](NC(=O)c4ccccc4)c4ccccc4)C(C)=C1C3(C)C)[C@]1(OC(C)=O)CO[C@@H]1C[C@@H]2O [Paclitaxel]
- IC50 (NCI-N87): 7.9 ± 4 nM
- IC50 (MDA-MB-231-S120; Homo sapiens, MDA-MB-231-S120, YHO-13351 2 μM where added): 3.2 ± 0.7 nM
- RF (resistance factor) (MDA-MB-231-S120; IC50 mean of MDA-MB-231-S120 / MDA-MB-231): 1.3
- IC50 (MDA-MB-231): 2.5 ± 0.1 nM
- IC50 (NCI-N87-S120; Homo sapiens, NCI-N87-S120, YHO-13351 2 μM, Ko143 1 μM where added): 8.6 ± 6.5 nM
- RF (resistance factor) (NCI-N87-S120; IC50 mean of NCI-N87-S120 / NCI-N87): 1.1

Molecule: CCc1c2c(nc3ccc(O)cc13)-c1cc3c(c(=O)n1C2)COC(=O)[C@]3(O)CC [SN-38 (5 min - 2 h)]
- AUC (FIG. 12): 3.9 (µg/mL·h)

Molecule: CCc1c2c(nc3ccc(O[C@@H]4O[C@H](C(=O)O)[C@@H](O)[C@H](O)[C@H]4O)cc13)-c1cc3c(c(=O)n1C2)COC(=O)[C@]3(O)CC [SN-38G (5 min - 6 h)]
- AUC (FIG. 12): 11.6 (µg/mL·h)

Molecule: CCN(CC)CC(=O)OC1CCN(c2ccc(/C=C(\C#N)c3ccc(OC)c(OC)c3)s2)CC1.CS(=O)(=O)O [YHO-13351]
- effect on SN-38 toxicity in S-120 cells (NCI-N87-S120): restored toxicity of SN-38

Molecule: CCc1c2c(nc3ccc(OC(=O)N4CCC(N5CCCCC5)CC4)cc13)-c1cc3c(c(=O)n1C2)COC(=O)[C@]3(O)CC [irinotecan, reference compound]
- antitumor effect vs specific conjugate [1]: the same antitumor effects as the specific hRS7-SN-38 conjugate
- decrease in tumor size on re-treatment (MDA-MB-468 TNBC tumors): 23%
- grade 3 and 4 neutropenia incidence [2]: 14 to 26%
- AUC (in vivo): 21000 ng·h/mL
- efficacy at MTD (COLO 205 tumors): as effective as hRS7-CL2-SN-38
- survival benefit (NCI-N87-S-120 tumors): no significant survival benefit

Molecule: cyclosporine A
- reversal of SN-38 resistance vs Ko143 and YHO-13351 (NCI-N87-S120): comparable or less potency

Molecule: hA20-CL2A-SN-38 [reference compound]
- mice tumor-free at end of study (day 140) (Capan-1 tumors): 20%
- antitumor effect vs specific conjugate [1]: the same antitumor effects as the specific hRS7-SN-38 conjugate
- Mean Fluorescence Intensity (γH2AX) (BxPC-3): 2246 ± 58
- Percent Positive (γH2AX) (BxPC-3; listed as hA20-SN-38): 12.7 ± 2.4%

Molecule: hRS7-CL2-SN-38
- mice tumor-free at end of study (day 140) (Capan-1 tumors): 40%
- response at higher dose (Calu-3 tumors): remained tumor-free until the end of the study on day 147

Molecule: hRS7-NEM: hRS7 treated with TCEP and conjugated with N-ethylmaleimide [reference compound]
- KD [3]: in the sub-nanomolar range

B1: ^90Y-hPAM4 (conjugate, chains of the INN, looked up)
VH: QVQLQQSGAEVKKPGASVKVSCEASGYTFPSYVLHWVKQAPGQGLEWIGYINPYNDGTQYNEKFKGKATLTRDTSINTAYMELSRLRSDDTAVYYCARGFGGSYGFAYWGQGTLVTVSS
VL: DIQLTQSPSSLSASVGDRVTMTCSASSSVSSSYLYWYQQKPGKAPKLWIYSTSNLASGVPARFSGSGSGTDFTLTISSLQPEDSASYFCHQWNRYPYTFGGGTRLEIK
modifications: 90Y radiolabel
- mice tumor-free after 20 weeks (Capan-1 xenografts; 75 μCi alone): 1 of 10
- animals tumor-free (Capan-1 xenografts; 130 μCi RAIT alone): 5 of 10

B2: hPAM4: unconjugated humanized PAM4 anti-MUC5ac antibody (antibody, chains of the INN, looked up, V domains shown)
VH: QVQLQQSGAEVKKPGASVKVSCEASGYTFPSYVLHWVKQAPGQGLEWIGYINPYNDGTQYNEKFKGKATLTRDTSINTAYMELSRLRSDDTAVYYCARGFGGSYGFAYWGQGTLVTVSS
VL: DIQLTQSPSSLSASVGDRVTMTCSASSSVSSSYLYWYQQKPGKAPKLWIYSTSNLASGVPARFSGSGSGTDFTLTISSLQPEDSASYFCHQWNRYPYTFGGGTRLEIK
- anti-tumor activity of unconjugated antibody (Capan-1 xenografts; given alone): Neither unconjugated hPAM4 nor hRS7 antibodies had anti-tumor activity when given alone
